Laboratory results reported in PMC10224004, “Modulation of Distribution and Diffusion through the Lipophilic Membrane with Cyclodextrins Exemplified by a Model Pyridinecarboxamide Derivative” (Pharmaceutics, 2023).
Values joined by “and” are separate entries in the source; they are usually repeats but may differ in a detail not shown here. Equal entries are not always repeated. Where two headings read alike, the source gives them in different places.

Legend:
[1] = Shake-flask distribution in the 1-octanol/buffer pH 7.4 system; format: physicochemical
Procedure: (§1) Apparent distribution coefficients of the compounds were measured in two systems: 1-octanol/buffer pH 7.4 and n-hexane/buffer pH 7.4 by the shake-flask technique at 310.2 ± 0.5 K in the absence (for IPN, INZ and iNAM) and in the presence of cyclodextrins (HP-β-CD and M-β-CD) in the aqueous phase (for IPN only). The concentrations of cyclodextrins were: 0.0115 M, 0.025 M and 0.035 M. The experiments were carried out according to the literature. In brief, the following experimental procedure was performed. Aqueous buffer pH 7.4 and organic solvent (1-octanol or n-hexane) were mixed during 48 h to obtain mutually saturated phases. The stock solutions containing the drug were prepared in buffer pH 7.4 saturated with the organic solvent. Both aliquots of the aqueous stock solution and organic solvent were placed in screwed glass vials and mixed at 310.2 ± 0.5 K during 3 days. The concentrations of the stock solutions were approximately 6.0 × 10^−3 M for both systems. The volumes of the phases were 3:3 in the 1-octanol/buffer pH 7.4 systems and 6:3 and 10:3 in the n-hexane/buffer pH 7.4 systems, without and with cyclodextrins, respectively. After mixing, the equilibrium was achieved; the vials were maintained at 310.2 ± 0.5 K, and the phases were separated from each other. The drug concentrations were determined using spectrophotometer (Cary-50 Varian, Palo Alto, CA, USA, Software Version 3.00 (339)). The experiments were carried out at least four-fold with an accuracy of 2–4%. The distribution coefficients were calculated using the following equation:(6) DappOrg/buf=C2Org/buf⋅V^buf/Org/C2buf/Org⋅V^Org/buf where DappOrg/buf is the distribution coefficient calculated from the concentrations of the compounds expressed in molar scale, C2Org/buf and C2buf/Org are the molar concentrations of the drug in the mutually saturated organic solvent/buffer and buffer/organic solvent phases, respectively, and V^buf/Org and V^Org/buf are the volumes of the saturated buffer and organic solvent phases, respectively. In addition, the ΔlogD parameters were estimated taking into account the distribution coefficients both in the 1-octanol/buffer pH 7.4 and n-hexane/buffer H 7.4 systems. As Abraham et al. stated, the difference between the distribution parameters in these systems ( ΔlogD ) can be applied to assess the specific interactions including a hydrogen-bonding impact to the drug transport properties and can be calculated as follows:(7) ΔlogD=logDappoct/buf−logDapphex/buf

[2] = Shake-flask distribution in the n-hexane/buffer pH 7.4 system; format: physicochemical
Procedure: as §1

[3] = Membrane permeability in Franz diffusion cell; format: in vitro ADME; details: for Papp at 5 h: pH 7.4, PermeaPad barrier, read-out: permeability coefficient (Papp)
Procedure: Membrane permeability coefficients of the studied drugs were measured in the Franz diffusion cell of vertical type (PermeGear, Inc., Hellertown, PA, USA) with 7 mL/1 mL volumes of the donor and acceptor solutions through the reverse dialysis set up. The PermeaPad barrier (PHABIOC, Fritz-Souchon-Str.27 32339 Espelkamp Germany, www.innome.de) (0.785 cm^2 effective surface area) was mounted between the donor and acceptor chambers of the diffusion cell. The temperature was maintained at 310.2 ± 0.5 K throughout the experiment. Samples of 0.5 mL were withdrawn each 30 min from the acceptor solution and replaced with an equal amount of fresh buffer. Permeability experiments lasted over five hours in all cases. The solutions concentrations were analyzed via spectrophotometer (Spectramax 190; Molecular Devices Corporation, San Jose, CA, USA) in 96-well UV black plates (Costar) at a wavelength of 264 nm and 266 nm for IPN and INZ/iNAM, respectively. The dependences of the amount of the permeated drug over the surface area (dQ/A) on time (t) were plotted and flux (J) across the membrane was calculated by the equation:(11) J=dQ/A×dt The apparent permeability coefficients (Papp) were determined by normalizing the flux measured over the concentration of the drug in the donor compartment (C0) by the equation:(12) Papp=J/C0 Each permeability experiment was carried out in triplicate.
Similarly to the distribution, the permeability coefficients were obtained in the absence (for IPN, and iNAM) and in the presence of cyclodextrins (HP-β-CD and M-β-CD) (for IPN only) in the donor solution. The concentrations of cyclodextrins were 0.0115 M, 0.025 M and 0.035 M. The permeability coefficient for INZ through the PermeaPad barrier was determined in our previous investigation and taken in the present study for the sake of comparison.

[4] = parameters: method as in PMID 12750026; details: 293.2 K (20 °C); cited from earlier work
[5] = 310.2 K, cyclodextrin in buffer phase as in the label
[6] = V(oct):V(buf)= 3:3, molar concentration × 10^3

- Dappoct/buff [1, 5]: 2.651 ± 0.093
- logDappoct/buff [1, 5]: 0.423 ± 0.015 and 0.423
- Molar concentration C2 buf/oct ∙10^3 (aqueous phase) [1, 6]: 1.69 ∙10^3
- Molar concentration C2 oct/buf ∙10^3 (organic phase) [1, 6]: 4.48 ∙10^3
- logDapphex/buff [2, 5]: −2.907
- Dapphex/buff ·10^4 ([2]; 310.2 K, value = D·10^4, cyclodextrin in buffer phase as in the label): 12.400 ± 0.191 ·10^4
- Molar concentration C2 buf/hex ∙10^3 (aqueous phase) ([2]; V(hex):V(buf)= 6:3 without and 10:3 with cyclodextrins, molar concentration × 10^3): 6.46 ∙10^3
- Molar concentration C2 hex/buf ∙10^5 (organic phase) ([2]; V(hex):V(buf)= 6:3 without and 10:3 with cyclodextrins, molar concentration × 10^5): 1.60 ∙10^5
- steady penetrate rate - flux J∙10^4 ([3]; PermeaPad barrier, 310.2 K, pH 7.4, printed value = J × 10^4, cyclodextrin in donor solution as in the label): 1.25 ∙10^4 (μM∙cm‐2∙s‐1)
- Papp∙10^5 ([3]; PermeaPad barrier, 310.2 K, pH 7.4, value = Papp × 10^5, cyclodextrin in donor solution as in the label): 2.03±0.05 ∙10^5 (cm∙s‐1)
- Papp at 5 h ([3]; 310.2 K, without cyclodextrins): 20.3 ×10⁻⁶ cm/s
- Papp at 5 h ([3]; enhancement in the presence of M-β-CD in donor solution (highest value reached)): ≤ 28.7 ×10⁻⁶ cm/s
- Papp at 5 h ([3]; slight decrease upon growing HP-β-CD concentration in donor solution (lowest value reached)): ≥ 17.8 ×10⁻⁶ cm/s
Structure (SMILES): CC(C)NNC(=O)c1ccncc1 [IPN, N′-isopropyl isonicotinic hydrazide]
- log Dexpoct/pH7.4 [4]: 0.35 ± 0.10
